Laboratory results as given in US7119221B2, “Cycloalkyl-hydroxyl compounds and compositions for cholesterol management and related uses” (Esperion Therapeutics, Inc., priority 2003, dated 2006).

Assays:
obese female Zucker rats = assay: Oral daily treatment of chow fed obese female Zucker rats for fourteen days: serum lipids, glycemic control indicators, body weight; format: in vivo, rat; conditions: oral gavage, 14 days; for % wt. gain: obese female Zucker rats; for Glucose, Percent of Pre-treatment: blood glucose after 6 hour fast; for HDL-C, Percent of Pre-treatment / Insulin, Percent of Pre-treatment / Non-HDL-C, Percent of Pre-treatment: serum; for BHA, Percent of Pre-treatment: serum beta-hydroxy butyric acid; for NEFA, Percent of Pre-treatment: serum non-esterified fatty acids; for HDL-C/non-HDL-C: serum ratio; for TC, Percent of Pre-treatment: serum total cholesterol; for TG, Percent of Pre-treatment: serum triglycerides
Method: In a number of different experiments, illustrative compounds of the invention are administered daily at a dose of up to 100 mg/kg to chow fed obese female Zucker rats for fourteen days in the morning by oral gavage in 1.5% carboxymethylcellulose/0.2% Tween 20 or 20% ethanol/80% polyethylene glycol (dosing vehicles). Animals are weighed daily. Animals are allowed free access to rodent chow and water throughout the study except on days of blood sampling where food is restricted for six hours prior to blood sampling. Blood glucose is determined after the 6 hour fast in the afternoon without anesthesia from a tail vein. Serum is also prepared from pretreatment blood samples subsequently obtained from the orbital venous plexus (with O2/CO2 anesthesia) and following the fourteenth dose at sacrifice from the heart following O2/CO2 anesthesia. Serums are assayed for lipoprotein cholesterol profiles, triglycerides, total cholesterol, Non-HDL cholesterol, HDL cholesterol, the ratio of HDL cholesterol to that of Non-HDL cholesterol, insulin, non-esterified fatty acids, and beta-hydroxy butyric acid. The percent body weight gain and the ratio of liver to body weight is also determined. These are shown as absolute values or as a percent change of the pretreatment values in Table 1.

primary rat hepatocytes = assay: Inhibition of lipid synthesis ([1-14C]-acetate incorporation) in primary cultures of rat hepatocytes; format: cell-based; conditions: Hepatocyte, 4 hour incubation with [1-14C]-acetate, 0-300 μM compound
Method: Compounds were tested for inhibition of lipid synthesis in primary cultures of rat hepatocytes. Male Sprague-Dawley rats were anesthetized with intraperitoneal injection of sodium pentobarbital (80 mg/kg). Rat hepatocytes were isolated essentially as described by the method of Seglen (Seglen, P. O. Hepatocyte suspensions and cultures as tools in experimental carcinogenesis. J. Toxicol. Environ. Health 1979, 5, 551–560). Hepatocytes were suspended in Dulbecco's Modified Eagles Medium containing 25 mM D-glucose, 14 mM HEPES, 5 mM L-glutamine, 5 mM leucine, 5 mM alanine, 10 mM lactate, 1 mM pyruvate, 0.2% bovine serum albumin, 17.4 mM non-essential amino acids, 20% fetal bovine serum, 100 nM insulin and 20 μg/mL gentamycin) and plated at a density of 1.5×10^5 cells/cm^2 on collagen-coated 96-well plates. Four hours after plating, media was replaced with the same media without serum. Cells were grown overnight to allow formation of monolayer cultures. Lipid synthesis incubation conditions were initially assessed to ensure the linearity of [1-^14C]-acetate incorporation into hepatocyte lipids for up to 4 hours. Hepatocyte lipid synthesis inhibitory activity was assessed during incubations in the presence of 0.25 μCi [1-^14C]-acetate/well (final radiospecific activity in assay is 1 Ci/mol) and 0, 1, 3, 10, 30, 100 or 300 μM of compounds for 4 hours. At the end of the 4-hour incubation period, medium was discarded and cells were washed twice with ice-cold phosphate buffered saline and stored frozen prior to analysis. To determine total lipid synthesis, 170 μl of MicroScint-E® and 50 μl water was added to each well to extract and partition the lipid soluble products to the upper organic phase containing the scintillant. Lipid radioactivity was assessed by scintillation spectroscopy in a Packard TopCount NXT.

| Compound | IC50 (primary rat hepatocytes) [µM] | % wt. gain (obese female Zucker rats; 100 mg/kg/day) [%] | Glucose, Percent of Pre-treatment (obese female Zucker rats; 100 mg/kg/day) [%] | HDL-C, Percent of Pre-treatment (obese female Zucker rats; 100 mg/kg/day) [%] | Insulin, Percent of Pre-treatment (obese female Zucker rats; 100 mg/kg/day) [%] | Non-HDL-C, Percent of Pre-treatment (obese female Zucker rats; 100 mg/kg/day) [%] | BHA, Percent of Pre-treatment (obese female Zucker rats; 100 mg/kg/day) [%] | NEFA, Percent of Pre-treatment (obese female Zucker rats; 100 mg/kg/day) [%] | HDL-C/non-HDL-C (obese female Zucker rats; 100 mg/kg/day) | TC, Percent of Pre-treatment (obese female Zucker rats; 100 mg/kg/day) [%] | TG, Percent of Pre-treatment (obese female Zucker rats; 100 mg/kg/day) [%] | further results |
| --- | --- | --- | --- | --- | --- | --- | --- | --- | --- | --- | --- | --- |
| CC(C)(CCCCC(O)CCCCC1(C(=O)O)CCC1)C(=O)O (stereo not shown) [A] | 12 |  |  |  |  |  |  |  |  |  |  | % wt. gain (obese female Zucker rats; 30 mg/kg/day): 12.3%; Glucose, Percent of Pre-treatment (obese female Zucker rats; 30 mg/kg/day): −1%; HDL-C, Percent of Pre-treatment (obese female Zucker rats; 30 mg/kg/day): 76%; Insulin, Percent of Pre-treatment (obese female Zucker rats; 30 mg/kg/day): −8%; Non-HDL-C, Percent of Pre-treatment (obese female Zucker rats; 30 mg/kg/day): −20%; BHA, Percent of Pre-treatment (obese female Zucker rats; 30 mg/kg/day): 150%; NEFA, Percent of Pre-treatment (obese female Zucker rats; 30 mg/kg/day): −30%; HDL-C/non-HDL-C (obese female Zucker rats; 30 mg/kg/day): 4; TC, Percent of Pre-treatment (obese female Zucker rats; 30 mg/kg/day): 37%; TG, Percent of Pre-treatment (obese female Zucker rats; 30 mg/kg/day): −23% |
| O=C(O)C1(CCCCCC(O)CCCCCC2(C(=O)O)CC2)CC1 [B] | 0.9 | 4.2 | −24 | 54 | −51 | −94 | 254 | −23 | 153 | 13 | −91 |  |
| O=C(O)C1(CCCCCC(O)CCCCCC2(C(=O)O)CCCC2)CCCC1 [Compound 6.33, 1-[11-(1-Carboxycyclopentyl)-6-hydroxyundecyl]-1-cyclopentanecarboxylic acid] |  |  |  |  |  |  |  |  |  |  |  | melting point: 76 to 77 °C |
| CC(C)(CCCCC(O)CCCCC1(C(=O)O)CC1)C(=O)O (stereo not shown) [Compound E] | 3 | 10.4 | −2 | 162 | 2 | 1 | 223 | −24 | 5 | 101 | −34 |  |
| CC(C)(CCCCCC(O)CCCCCC1(C(=O)O)CC1)C(=O)O (stereo not shown) [D] | 1.4 | −1.7 | −13 | 15 | −70 | −98 | 195 | −44 | 785 | −11 | −97 |  |
| O=C(O)C1(CCCCC(O)CCCCC2(C(=O)O)CC2)CC1 [F] | 1.8 |  |  |  |  |  |  |  |  |  |  |  |
